Measured values taken from ChEMBL document CHEMBL5360558, “Molecular design, synthesis and anticancer activity of new thiopyrano[2,3-d]thiazoles based on 5-hydroxy-1,4-naphthoquinone (juglone)” (Eur J Med Chem, 2023).

What was measured:
HCT-15 = assay: Anticancer activity against human HCT-15 cells assessed as cell growth at 10 uM incubated for 48 hrs by sulforhodamine B assay; assay type: functional; settings: read-out: Activity
UACC-257 = assay: Anticancer activity against human UACC-257 cells assessed as cell growth at 10 uM incubated for 48 hrs by sulforhodamine B assay; assay type: functional; settings: read-out: Activity
KB 3-1 = assay: Cytotoxicity against human KB 3-1 cells assessed as cell growth inhibition incubated for 72 hrs by MTT assay; assay type: functional, cell-based; settings: KB 3-1, 72 h
[1] = Cytotoxicity against human HCT116-p53-null cells assessed as cell growth inhibition incubated for 72 hrs by MTT assay; assay type: functional, cell-based
BT-549 = assay: Anticancer activity against human BT-549 cells assessed as cell growth at 10 uM incubated for 48 hrs by sulforhodamine B assay; assay type: functional; settings: read-out: Activity
M14 = assay: Anticancer activity against human M14 cells assessed as cell growth at 10 uM incubated for 48 hrs by sulforhodamine B assay; assay type: functional; settings: read-out: Activity
SN12C = assay: Anticancer activity against human SN12C cells assessed as cell growth at 10 uM incubated for 48 hrs by sulforhodamine B assay; assay type: functional; settings: read-out: Activity
K562 = assay: Cytotoxicity against human K562 cells assessed as cell growth inhibition incubated for 72 hrs by MTT assay; assay type: functional, cell-based; settings: K562, 72 h
RXF 393 = assay: Anticancer activity against human RXF 393 cells assessed as cell growth at 10 uM incubated for 48 hrs by sulforhodamine B assay; assay type: functional; settings: read-out: Activity
SNB-19 = assay: Anticancer activity against human SNB-19 cells assessed as cell growth at 10 uM incubated for 48 hrs by sulforhodamine B assay; assay type: functional; settings: read-out: Activity
SK-MEL-28 = assay: Anticancer activity against human SK-MEL-28 cells assessed as cell growth at 10 uM incubated for 48 hrs by sulforhodamine B assay; assay type: functional; settings: read-out: Activity
HOP-62 = assay: Anticancer activity against human HOP-62 cells assessed as cell growth at 10 uM incubated for 48 hrs by sulforhodamine B assay; assay type: functional; settings: read-out: Activity
SF-295 = assay: Anticancer activity against human SF-295 cells assessed as cell growth at 10 uM incubated for 48 hrs by sulforhodamine B assay; assay type: functional; settings: read-out: Activity
NCI-H322M = assay: Anticancer activity against human NCI-H322M cells assessed as cell growth at 10 uM incubated for 48 hrs by sulforhodamine B assay; assay type: functional; settings: read-out: Activity
Salmon testes DNA = assay: Displacement of methyl green from salmon sperm DNA assessed as DNA intercalation at 10 uM incubated for 24 hrs by fluorescence plate reader method relative to control; assay type: nucleic-acid assay; settings: Salmo salar
MDA-MB-435 = assay: Anticancer activity against human MDA-MB-435 cells assessed as cell growth at 10 uM incubated for 48 hrs by sulforhodamine B assay; assay type: functional; settings: read-out: Activity
Malme-3M = assay: Anticancer activity against human Malme-3M cells assessed as cell growth at 10 uM incubated for 48 hrs by sulforhodamine B assay; assay type: functional; settings: read-out: Activity
OVCAR-5 = assay: Anticancer activity against human OVCAR-5 cells assessed as cell growth at 10 uM incubated for 48 hrs by sulforhodamine B assay; assay type: functional; settings: read-out: Activity
OVCAR-8 = assay: Anticancer activity against human OVCAR-8 cells assessed as cell growth at 10 uM incubated for 48 hrs by sulforhodamine B assay; assay type: functional; settings: read-out: Activity
SK-MEL-5 = assay: Anticancer activity against human SK-MEL-5 cells assessed as cell growth at 10 uM incubated for 48 hrs by sulforhodamine B assay; assay type: functional; settings: read-out: Activity
MCF7 = assay: Cytotoxicity against human MCF7 cells assessed as cell growth inhibition incubated for 72 hrs by MTT assay; assay type: functional, cell-based; settings: MCF7, 72 h
HCT-116 = assay: Cytotoxicity against human HCT-116 cells assessed as cell growth inhibition incubated for 72 hrs by MTT assay; assay type: functional, cell-based; settings: HCT-116, 72 h
SF-539 = assay: Anticancer activity against human SF-539 cells assessed as cell growth at 10 uM incubated for 48 hrs by sulforhodamine B assay; assay type: functional; settings: read-out: Activity
[2] = Cytotoxicity against mouse J774.2 cells assessed as cell growth inhibition incubated for 72 hrs by MTT assay; assay type: toxicity, cell-based
[3] = Cytotoxicity against mouse NIH3T3 cells assessed as cell growth inhibition incubated for 72 hrs by MTT assay; assay type: toxicity, cell-based
UO-31 = assay: Anticancer activity against human UO-31 cells assessed as cell growth at 10 uM incubated for 48 hrs by sulforhodamine B assay; assay type: functional; settings: read-out: Activity
HCC 2998 = assay: Anticancer activity against human HCC 2998 cells assessed as cell growth at 10 uM incubated for 48 hrs by sulforhodamine B assay; assay type: functional; settings: read-out: Activity
A498 = assay: Anticancer activity against human A498 cells assessed as cell growth at 10 uM incubated for 48 hrs by sulforhodamine B assay; assay type: functional; settings: read-out: Activity
[4] = Cytotoxicity against human HaCaT cells assessed as cell growth inhibition incubated for 72 hrs by MTT assay; assay type: toxicity, cell-based; settings: HaCaT cells
CAKI-1 = assay: Anticancer activity against human CAKI-1 cells assessed as cell growth at 10 uM incubated for 48 hrs by sulforhodamine B assay; assay type: functional; settings: read-out: Activity
SR = assay: Anticancer activity against human SR cells assessed as cell growth at 10 uM incubated for 48 hrs by sulforhodamine B assay; assay type: functional; settings: read-out: Activity
SNB-75 = assay: Anticancer activity against human SNB-75 cells assessed as cell growth at 10 uM incubated for 48 hrs by sulforhodamine B assay; assay type: functional; settings: read-out: Activity
[5] = Acute toxicity in C57BL/6 mouse assessed as decrease in body mass at 6.6 mg/kg,ip administration; assay type: organism-based; settings: in vivo
[6] = Cytotoxicity against human Lymphocyte cells assessed as cell growth inhibition incubated for 72 hrs by MTT assay; assay type: toxicity, cell-based; settings: lymphocytes
SK-MEL-2 = assay: Anticancer activity against human SK-MEL-2 cells assessed as cell growth at 10 uM incubated for 48 hrs by sulforhodamine B assay; assay type: functional; settings: read-out: Activity
[7] = Antileukemic activity against human CLL cell assessed as cell growth inhibition incubated for 72 hrs by MTT assay; assay type: functional, cell-based
[8] = Antileukemic activity against human CLL cell assessed as cell growth inhibition incubated for 72 hrs during remission period by MTT assay; assay type: functional, cell-based
COLO 205 = assay: Anticancer activity against human COLO 205 cells assessed as cell growth at 10 uM incubated for 48 hrs by sulforhodamine B assay; assay type: functional; settings: read-out: Activity
[9] = Acute toxicity in C57BL/6 mouse assessed as neutrophil count at 20 mg/kg,ip administration and observed after 22 days; assay type: organism-based; settings: in vivo, 528 h, time 22 day
[10] = Acute toxicity in C57BL/6 mouse assessed as animal death at 20 mg/kg,ip administration observed after 8 days; assay type: organism-based; settings: in vivo, 192 h, time 8 day
[11] = Antileukemic activity against human CLL cell assessed as cell growth inhibition incubated for 72 hrs in presence of BST by MTT assay; assay type: functional, cell-based
[12] = Acute toxicity in C57BL/6 mouse assessed as lymphocyte count at 20 mg/kg,ip administration and observed after 22 days; assay type: organism-based; settings: in vivo, 528 h, time 22 day
[13] = Acute toxicity in C57BL/6 mouse assessed as decrease in body mass at 20 mg/kg,ip administration observed after 6 days; assay type: organism-based; settings: in vivo, 144 h, time 6 day
[14] = Acute toxicity in C57BL/6 mouse assessed as anemia at 20 mg/kg,ip administration observed after 22 days; assay type: organism-based; settings: in vivo, 528 h, time 22 day
[15] = Acute toxicity in C57BL/6 mouse assessed as animal death at 20 mg/kg,ip administration observed after 13 days; assay type: organism-based; settings: in vivo, 312 h, time 13 day
[16] = Acute toxicity in C57BL/6 mouse assessed as leukopenia at 20 mg/kg,ip administration observed after 22 days; assay type: organism-based; settings: in vivo, 528 h, time 22 day

Structure (SMILES)	IC50 (KB 3-1) [µM]	IC50 [1] [µM]	IC50 (K562) [µM]	Activity (Salmon testes DNA) [%]	IC50 (MCF7) [µM]	IC50 (HCT-116) [µM]	IC50 at 72 h [2] [µM]	IC50 at 72 h [3] [µM]	IC50 at 72 h [4] [µM]	also measured
O=C1C2=C(C(=O)c3c(O)cccc31)C(c1cccs1)c1sc(=O)[nH]c1S2 (configuration not stated)	4.53	5.36	21.5	66.4	24.1	5.13	6.81	39.1		growth at 10 µM (HCT-15): -91.4%; growth at 10 µM (UACC-257): -93.1%; growth at 10 µM (BT-549): -99.9%; growth at 10 µM (M14): -96.7%; growth at 10 µM (SN12C): -92.8%; growth at 10 µM (RXF 393): -97.4%; growth at 10 µM (SNB-19): -99.5%; growth at 10 µM (SK-MEL-28): -97.2%; growth at 10 µM (HOP-62): -94.3%; growth at 10 µM (SF-295): -93.5%; growth at 10 µM (NCI-H322M): -96.8%; growth at 10 µM (MDA-MB-435): -90.2%; growth at 10 µM (Malme-3M): -99.4%; growth at 10 µM (OVCAR-5): -93%; growth at 10 µM (OVCAR-8): -94.6%; growth at 10 µM (SK-MEL-5): -96.9%; growth at 10 µM (SF-539): -99.5%; growth at 10 µM (UO-31): -92.9%; growth at 10 µM (HCC 2998): -96.8%; growth at 10 µM (A498): -98.7%
O=C1C2=C(C(=O)c3c(O)cccc31)C(/C=C/c1ccccc1[N+](=O)[O-])c1sc(=O)[nH]c1S2 (configuration not stated)	6.94	2.16	15.7	53.2	0.95	0.94	0.83			
C/C(=C\c1ccccc1)C1C2=C(Sc3[nH]c(=O)sc31)C(=O)c1cccc(O)c1C2=O (configuration not stated)	47.5	41.7	33	29.5	> 50	40.6	30.8			
O=C1C2=C(C(=O)c3c(O)cccc31)C(c1ccc(Cl)cc1)c1sc(=O)[nH]c1S2 (configuration not stated)	3.33	3.1	19.2	29.5	7.5	4.12	5.27	46.6	> 50	growth at 10 µM (BT-549): 39.5%; growth at 10 µM (CAKI-1): 36.7%; growth at 10 µM (SF-539): 35.1%; growth at 10 µM (SR): 38.6%; growth at 10 µM (UO-31): 39.8%
O=C1C2=C(C(=O)c3c(O)cccc31)C(/C=C/c1ccccc1)c1sc(=O)[nH]c1S2 (configuration not stated)	46.4	43.7	28.4	11.8	7.41	35.6	7.44			
CN(C)c1ccc(C2C3=C(Sc4[nH]c(=O)sc42)C(=O)c2cccc(O)c2C3=O)cc1 (configuration not stated)	7.21	8.83	22.9	55.4	> 50	6.15	26.9	> 50	> 50	
COc1cccc2c1C(=O)c1c(O)c3c(c(O)c1C2=O)C[C@@](O)(C(=O)CO)C[C@@H]3O[C@H]1C[C@H](N)[C@H](O)[C@H](C)O1 [DOXORUBICIN]	0.56	0.63	0.59			0.58	0.56	0.72	4.56	growth at 10 µM (SNB-75): -76.1%; Activity [5]: Toxic; IC50 at 72 h [6]: 10 µM; growth at 10 µM (SK-MEL-2): -82.6%; growth at 10 µM (M14): -71.6%; IC50 [7]: > 10 µM; IC50 [8]: 7.33 µM; growth at 10 µM (COLO 205): -81.6%; Activity [9]: 45.05%; Activity [10]: Toxic; growth at 10 µM (MDA-MB-435): -82.6%; IC50 [11]: 8.6 µM; growth at 10 µM (SK-MEL-5): -86.4%; Activity [12]: 50.35%; Activity [13]: Toxic; Activity [14]: Toxic; Activity [15]: Toxic; Activity [16]: Toxic; growth at 10 µM (A498): -75.1%
CC1(C)C2=C(Sc3[nH]c(=O)sc31)C(=O)c1cccc(O)c1C2=O	23.4	36.2	26.8	42.5	9.48	12.9	26.4	> 50	> 50	
